Assay results: ChEMBL document CHEMBL2203261, “Selective thyromimetics using receptor and tissue selectivity approaches: prospects for dyslipidemia” (J Med Chem, 2012)
pEC50, pKi: −log10 of the molar value.

Experiments:
Homo sapiens [1] = assay: Antidyslipidemic activity in human assessed as reduction in LDL cholesterol at 100 ug administered QD relative to control; assay type: functional; set-up: scale not given: the % may be the effect or the level left
[2] = molecular target: T1, Thyroid hormone receptor beta (Homo sapiens, UniProt P10828); assay: Binding affinity to TRbeta1
T1 sequence (P10828 whole entry): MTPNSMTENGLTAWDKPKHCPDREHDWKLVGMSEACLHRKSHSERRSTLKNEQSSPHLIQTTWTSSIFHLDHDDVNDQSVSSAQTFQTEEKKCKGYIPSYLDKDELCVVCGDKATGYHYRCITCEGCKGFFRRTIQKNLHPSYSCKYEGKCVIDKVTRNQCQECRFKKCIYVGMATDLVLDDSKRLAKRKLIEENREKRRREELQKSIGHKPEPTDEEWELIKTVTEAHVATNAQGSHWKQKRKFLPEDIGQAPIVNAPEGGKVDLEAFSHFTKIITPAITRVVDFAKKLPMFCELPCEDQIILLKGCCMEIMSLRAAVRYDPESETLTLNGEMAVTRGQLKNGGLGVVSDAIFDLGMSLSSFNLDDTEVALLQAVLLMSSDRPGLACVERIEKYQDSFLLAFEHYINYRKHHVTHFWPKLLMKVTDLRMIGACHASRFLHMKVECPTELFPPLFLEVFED

Rattus norvegicus = assay: Antidyslipidemic activity in po dosed cholesterol fed rat assessed as reduction in cholesterol level administered QD; assay type: functional
Homo sapiens [3] = assay: Antidyslipidemic activity in obese, hypercholesterolemic patient assessed as reduction in LDL cholesterol at 100 ug administered QD for 2 weeks relative to control; assay type: functional; set-up: scale not given: the % may be the effect or the level left
[4] = molecular target: T2, Thyroid hormone receptor alpha (Homo sapiens, UniProt P10827); assay: Binding affinity to TRalpha1
T2 sequence (P10827 whole entry): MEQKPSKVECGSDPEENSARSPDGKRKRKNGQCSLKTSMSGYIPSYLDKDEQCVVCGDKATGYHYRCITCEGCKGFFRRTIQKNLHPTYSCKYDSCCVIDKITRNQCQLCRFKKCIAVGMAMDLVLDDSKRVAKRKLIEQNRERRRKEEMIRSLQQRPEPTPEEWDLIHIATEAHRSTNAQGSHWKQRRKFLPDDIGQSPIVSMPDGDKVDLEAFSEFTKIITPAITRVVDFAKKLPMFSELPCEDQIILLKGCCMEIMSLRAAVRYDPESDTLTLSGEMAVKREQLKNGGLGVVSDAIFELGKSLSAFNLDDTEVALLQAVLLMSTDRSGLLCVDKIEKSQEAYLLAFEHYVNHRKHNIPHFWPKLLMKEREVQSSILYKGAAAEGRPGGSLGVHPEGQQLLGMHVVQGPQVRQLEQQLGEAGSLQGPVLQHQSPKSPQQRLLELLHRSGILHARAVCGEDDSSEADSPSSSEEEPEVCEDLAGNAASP

| Compound | pEC50 [4] | pEC50 [2] | also measured |
| --- | --- | --- | --- |
| Cc1cc(OCC(=O)O)cc(C)c1Cc1ccc(O)c(C(C)C)c1 [SOBETIROME] | – | – | Activity (Homo sapiens [1]): 41% |
| Cc1cc(OCP2(=O)OCC[C@@H](c3cccc(Cl)c3)O2)cc(C)c1Cc1ccc(O)c(C(C)C)c1 (stereo partly drawn) [MB07811] | – | – | pKi [2]: 6.22; ED50 (Rattus norvegicus): 0.4 mg/kg |
| CC(C)c1cc(Oc2c(Br)cc(NC(=O)CC(=O)O)cc2Br)ccc1O [EPROTIROME] | – | – | Activity (Homo sapiens [3]): 40% |
| O=C(O)Cc1cc(Cl)c(Oc2ccc(O)c(-c3ccccc3)c2)c(Cl)c1 | 6.82 | 8.54 | – |
| O=C(O)Cc1cc(Cl)c(Oc2ccc(O)c(C(=O)NCC(c3ccccc3)c3ccccc3)c2)c(Cl)c1 | 7.74 | 9.33 | – |
